Data as given in patent US5538945A, “Stimulation of hair growth by peptide copper complexes” (ProCyte Corporation, priority 1994, dated 1996).

Key:
Assay type in all cases: in vivo
[1] = system: telogen cycle female C3H mice; experiment: Stimulation of hair growth by topical application of a peptide-copper complex (Example 14)
Description: This example illustrates the stimulation of hair growth in warm-blooded animals by topical application of a peptide-copper complex. In this experiment, telogen cycle female C3H mice (60-65 days old) were prepared by clipping their posterior dorsal region (i.e., day 1). Topical application of peptide-copper complexes was performed twice per day (Monday-Friday) using a cotton-tipped applicator which delivered approximately 0.1 ml per treatment. The topical formulation used in this experiment contained the following components:
Topical application of the above formulation continued until the onset of follicle pigmentation, which proceeds the emergence of the hair shall. Measurement of the degree of response was performed using digital image analysis at weekly intervals, beginning at day 14. Data was expressed as the percent treatment area response using the following equation:
% treatment area=(growth area/treatment area)×100
For comparison purposes to illustrate the effect of hydrophobic amino acid residues on hair growth after topical application, AHK:Cu was compared to AHF:Cu. In this experiment, topical formulations containing AHK:Cu (1.1:1) and AHF:Cu (1.1:1) were prepared at a concentration of 0.5% and 0.1% (w/w) as indicated above. Hair growth response (i.e., "Percent Treatment Area") was determined at day 20, day 27 and at day 34.

[2] = system: C3H mice (telogen hair growth phase); experiment: Stimulation of hair growth after intradermal injection of peptide-copper complexes (Example 12); settings: peptide to copper 2:1, day 21; for Number of Animals Growing Hair: responders/injected mice
Description: The following example illustrates the stimulation of hair growth in warm-blooded animals after intradermal injection of representative peptide-copper complexes of this invention.
As in Example 11 above, the backs of C3H mice (60 days old, telogen hair growth phase) were closely clipped on day 1 using an electric clipper. A sterile saline solution containing the indicated peptide-copper complex was then injected intradermally (i.e., infiltrated under the skin) at two locations within the clipped areas of the mice. Injection at two locations provided two test locations within the clipped area of each mouse. Each injection (0.1 ml) contained between 0.75 to 1.5 mg of the peptide-copper complex within the sterile saline solution. A group of saline injected mice (0.1 ml) served as controls. Following injection of the peptide-copper complexes, indications of hair growth were seen within 10 days. The first visual signs were a darkening of the skin in a circular region surrounding the injection site. The size of this region is generally dose dependent, increasing with an increase in dose. The 0.1 ml injections used in this experiment produced a circle of hair growth measuring approximately 0.5 cm^2 to 5 cm^2 in diameter. Active hair growth occurred between 14-20 days following injection, with a maximum effect seen by day 29. Both the number of mice growing hair at the injection site and the diameter of the hair growth region were determined at day 21.

[3] = system: Sprague-Dawley rat pups treated with cytosine arabinoside (Ara-C); experiment: Localized maintenance of hair follicle viability by intradermal injection during Ara-C chemotherapy (Example 16); settings: for Degree of Alopecia (mean) at the site of injection: day 10, grade 0 normal to 4 total loss of hair
Description: The following experiment illustrates the localized maintenance of hair follicle viability (i.e., growth) by intradermal (local) injection of the peptide-copper complex AHK:Cu during treatment with the chemotherapeutic agent cytosine arabinoside (Ara-C).
In this experiment, Sprague-Dawley rat pups (age 8 days) were maintained in 5 litters (n=10-11/litter) for the duration of this study. On day 0, litters received intradermal (ID) injections of AHK:Cu (1:1) in a sterile saline solution, or a saline control (1 injection per animal, 0.05 ml per injection). Each litter contained 2 normal control animals where no AHK:Cu or Ara-C was administered (i.e., saline only). On day 1, designated animals began a series of 7 consecutive daily intraperitoneal (IP) injections with Ara-C (25 mg/kg). On day 10, all animals were evaluated for the extent of hairloss (alopecia) at the injection sites using the rating identified in Example 15.
Ara-C injections caused significant hair loss by day 5-6 in most animals. In order to evaluate the stimulatory effect of AHK:Cu, the degree of hairloss was evaluated at the injection site daily. […] Table 9 presents the results as evaluated on day 10 using the previously described rating scale, with the "Degree of Alopecia" being expressed as the average response seen at the site of injection.

[4] = system: C3H mice (telogen hair growth phase); experiment: Stimulation of hair growth by intradermal injection of peptide-copper complexes containing D-amino acids (Example 13); settings: peptide to copper 1.1:1
Description: This example illustrates the stimulation of hair growth in warm-blooded animals by intradermal injection of AHK:Cu (1.1:1) utilizing a D-amino acids inplace of the naturally occurring L-amino acid.
In this experiment, the backs of C3H mice (60 days old, telogen hair growth phase) were closely clipped on day 1 using an electric clipper. A sterile saline solution containing AHK:Cu (1.1:1), or AHK:Cu (1.1:1) containing a D-amino acid, was then injected intradermally (i.e., infiltrated under the skin) at two locations within the clipped areas of the mice. Injection at two locations provided two test locations within the clipped area of each mouse. Each injection (0.1 ml) contained either 1.2 or 1.8 μmoles per injection of peptide-copper complex in the sterile saline solution. A group of saline injected mice (0.1 ml) served as controls. Following injection of peptide copper complex, indications of hair growth were seen within 10 days. The first visual signs were a darkening of the skin in a circular region surrounding the injection site. The size of this region is generally dose dependent, increasing with an increase in dose. The 0.1 ml injections used in this experiment produced a circle of hair growth measuring approximately 0.5 cm^2 to 5 cm^2 in diameter. […]
The degree of hair growth was determined by measuring the total area of hair growth at the two injection sites.

[5] = topical 0.1% w/w twice per day, peptide to copper 1.1:1, day 20
[6] = topical 0.1% w/w twice per day, peptide to copper 1.1:1, day 27
[7] = topical 0.1% w/w twice per day, peptide to copper 1.1:1, day 34
[8] = topical 0.5% w/w twice per day, peptide to copper 1.1:1, day 20
[9] = topical 0.5% w/w twice per day, peptide to copper 1.1:1, day 27
[10] = topical 0.5% w/w twice per day, peptide to copper 1.1:1, day 34

Substance	Percent Treatment Area (growth area/treatment area x 100) [1, 5]	Percent Treatment Area (growth area/treatment area x 100) [1, 6]	Percent Treatment Area (growth area/treatment area x 100) [1, 7]	Percent Treatment Area (growth area/treatment area x 100) [1, 8]	Percent Treatment Area (growth area/treatment area x 100) [1, 9]	Percent Treatment Area (growth area/treatment area x 100) [1, 10]	Area of Hair Growth ([2]; 0.75 mg/injection intradermal)	Number of Animals Growing Hair ([2]; 0.75 mg/injection intradermal)	Area of Hair Growth ([2]; 1.50 mg/injection intradermal)	Number of Animals Growing Hair ([2]; 1.50 mg/injection intradermal)	Degree of Alopecia (mean) at the site of injection ([3]; 0.05 mg per injection, 3.5 mg/kg intradermal day 0, peptide to copper 1:1, Ara-C 25 mg/kg IP x 7 days)	Degree of Alopecia (mean) at the site of injection ([3]; 0.10 mg per injection, 7.0 mg/kg intradermal day 0, peptide to copper 1:1, Ara-C 25 mg/kg IP x 7 days)	Degree of Alopecia (mean) at the site of injection ([3]; 0.25 mg per injection, 17.5 mg/kg intradermal day 0, peptide to copper 1:1, Ara-C 25 mg/kg IP x 7 days)	Degree of Alopecia (mean) at the site of injection ([3]; 0.50 mg per injection, 35.0 mg/kg intradermal day 0, peptide to copper 1:1, Ara-C 25 mg/kg IP x 7 days)	Histology of hair follicles at the injection site ([3]; intradermal, with Ara-C, follicles away from the injection dystrophic and non-functional)	Radius of retention of hair around the injection site ([3]; intradermal, with Ara-C, most notably in the 0.1 to 0.5 mg dose groups)	Area of Hair Growth (total area at the two injection sites) ([4]; 1.2 μmoles per injection intradermal)	Area of Hair Growth (total area at the two injection sites) ([4]; 1.8 μmoles per injection intradermal)	Relative hair growth activity after topical administration ([1]; AHK:Cu compared to AHF:Cu, topical)
alanyl-histidyl-phenylalanine:copper [AHF:Cu]	0.00%	0.00%	12.91 ± 12.91%	55.05 ± 17.44%	100%	100%													
alanyl-histidyl-lysine:copper [AHK:Cu]	1.29 ± 1.29%	23.07 ± 18.84%	90.14 ± 2.96%	75.87 ± 7.64%	100%	100%	< 1 cm diameter	1/4	> 1 cm diameter	4/4	3.25	2.38	1.44	1.11	normal appearing and functioning anagen hair follicles	0.25 cm	3.07 ± 0.76	3.24 ± 1.17	more active in stimulating hair growth
